Laboratory results published in ChEMBL document CHEMBL3132807, “Chemical motifs that redox cycle and their associated toxicity” (Medchemcomm, 2013).

Columns and labels:
[1] = Induction of ROS generation assessed as generation of H2O2 measured as oxidation of phenol red after 60 mins by phenol red assay; assay type: physicochemical
[2] = Cytotoxicity against human THLE cells assessed as ATP depletion after 4 hrs by CellTitre-Glo assay; assay type: functional, cell-based
[3] = Cytotoxicity against human THLE cells assessed as ATP depletion after 72 hrs by CellTitre-Glo assay; assay type: functional, cell-based
THLE = assay: Cytotoxicity against human THLE cells assessed as ATP depletion by CellTitre-Glo assay; assay type: functional, cell-based; details: TDE = time-dependent effect
[4] = Cytotoxicity against human THLE cells assessed as ATP depletion after 24 hrs by CellTitre-Glo assay; assay type: functional, cell-based

SMILES | EC50 at 60 min [1] [µM] | EC50 [2] [µM] | EC50 [3] [µM] | Activity (THLE) | EC50 [4] [µM]
O=C1NC(=O)/C(=C\c2ccncc2)C2=C1CCCC2 | 95 | – | – | – | –
Cn1nc(-c2ccc([N+](=O)[O-])cc2)nc2c(=O)n(C)c(=O)nc1-2 | 1 | 5.2 | 3.2 | tde | 2.9
NC(=O)N1C(=O)/C(=C(\O)c2ccc(Cl)s2)c2cc(Cl)ccc21 | 667 | > 300 | 117 | tde | 253
O=C1NC(=O)/C(=C\c2ccccc2)C2=C1CCCC2 [TESIMIDE] | 26 | > 300 | > 300 | tde | > 300
CC(=O)N/C=C1/C(=O)NC(=O)C(C#N)=C1C | 250 | – | – | – | –
O=c1[nH]c(=O)c2nccnc2[nH]1 | 713 | > 300 | > 300 | tde | > 300
Cn1nc(/C=C\c2ccccc2)nc2c(=O)n(C)c(=O)nc1-2 | 1 | 4.8 | 6.8 | tde | 5.9
O=C1NC(=O)/C(=C\c2ccc(O)cc2)C2=C1CCCC2 | 8.6 | – | – | – | –
C[n+]1ccc(-c2cc[n+](C)cc2)cc1 [PARAQUAT] | > 1000 | > 300 | > 300 | tde | > 300
Cc1c2cc3c(ccc4ccccc43)oc-2nc(=O)c1C#N | 11 | > 300 | > 300 | tde | > 300
Cn1ncnc2c(=O)n(C)c(=O)nc1-2 | 1 | 2.7 | 3.2 | tde | 2.1
Cn1nc(-c2cccnc2)nc2c(=O)n(C)c(=O)nc1-2 | 1 | 5.2 | 2 | tde | 2.1
Cn1c(=O)nc2sc3ccccc3nc-2c1=O | 151 | 10.6 | 8.2 | tde | 9.9
Cn1nc(-c2cccs2)nc2c(=O)n(C)c(=O)nc1-2 | 2 | 2.4 | 3.1 | tde | 2.9
O=c1nc2[nH]c3ccccc3nc-2c(=O)[nH]1 [ALLOXAZINE] | 226 | – | – | – | –
CC1=C(C)C(=O)c2ccccc2C1=O | 110 | 40.9 | 21.1 | tde | 23.1
Cn1nc(/C=C/c2ccccc2)nc2c(=O)n(C)c(=O)nc1-2 | 1 | 1.3 | 1.7 | tde | 1.2
CCCCCc1ccc(/C=C2\C(=O)NC(=O)C3=C2CCCC3)cc1 | 9.2 | – | – | – | –
O=C1NC(=O)/C(=C\c2ccco2)C2=C1CCCC2 | 18 | – | – | – | –
O=C1C=C(Cl)C(=O)c2ccccc21 | 2.5 | 21.1 | 37.4 | tde | 13.8
CCn1cc(C(=O)O)c(=O)c2ccc(C)nc21 [NALIDIXIC ACID] | > 1000 | > 300 | > 300 | tde | > 300
CCn1cc(C(=O)O)c(=O)c2cc(F)c(N3CCNCC3)cc21 [NORFLOXACIN] | > 1000 | > 300 | > 300 | tde | > 300

SMILES | EC50 at 60 min [1] [µM] | EC50 [2] [µM] | EC50 [3] [µM] | Activity (THLE) | EC50 [4] [µM]
O=C1NC(=O)/C(=C\c2ccc(F)cc2)C2=C1CCCC2 | 60 | – | – | – | –
COc1ccc(-c2nc3c(=O)n(C)c(=O)nc-3n(C)n2)cc1 | 2 | 9.6 | 7.2 | tde | 6
O=C1NC(=O)/C(=C\c2ccc(Cl)cc2Cl)C2=C1CCCC2 | 236 | – | – | – | –
Cn1nc(-c2ccccc2)nc2c(=O)n(C)c(=O)nc1-2 | 2 | 9 | 7.4 | tde | 4.5
O=C1NC(=O)/C(=C\c2ccc(C3CCCCC3)cc2)C2=C1CCCC2 | 121 | – | – | – | –
O=C1NC(=O)/C(=C\c2ccc(Cl)cc2)C2=C1CCCC2 | 0.5 | – | – | – | –
Cn1nc(-c2ccccc2)cc2c(=O)n(C)c(=O)nc1-2 | > 1000 | > 300 | > 300 | tde | > 300
O=C1NC(=O)/C(=C\c2ccccc2)C2=C1CCC2 | 233 | > 300 | > 300 | tde | > 300
O=C1NC(=O)/C(=C\c2ccc(C(=O)O)cc2)C2=C1CCCC2 | 53 | – | – | – | –
COc1cc(/C=C2\C(=O)NC(=O)C3=C2CCCC3)cc(OC)c1OC | 0.5 | – | – | – | –
Cc1cc(C)n(C)c2cccc(=O)c1-2 | 33 | > 300 | > 300 | tde | > 300
CC1=CC(=O)c2ccccc2C1=O [MENADIONE] | 29 | 94 | 17.7 | tde | 27.5
CCOc1ccc2nc3c(=O)n(C)c(=O)nc-3sc2c1 | 70 | 46 | 68 | tde | 79
CCCc1nc2c(=O)n(C)c(=O)nc-2n(C)n1 | 1 | 16.5 | 13 | tde | 9.1
O=c1[nH]c(=O)c2nc3ccccc3nc2[nH]1 [ALLOXAZINE] | – | > 300 | > 300 | tde | > 300
C[n+]1cc2c3c(ccc2c2ccc4cc5c(cc4c21)OCO5)OCO3 [SANGUINARIUM] | 513 | 1 | 0.93 | tde | 0.89
Cn1nc(-c2ccncc2)nc2c(=O)n(C)c(=O)nc1-2 | 1 | 11.7 | 3.1 | tde | 5.8
COc1cccc2c1C(=O)c1c(O)c3c(c(O)c1C2=O)C[C@@](O)(C(=O)CO)C[C@@H]3O[C@H]1C[C@H](N)[C@H](O)[C@H](C)O1 [DOXORUBICIN] | 179 | 215 | 0.53 | tde | 1.8
Nc1ccc2nc3c(=O)[nH]c(=O)nc-3[nH]c2c1 | 110 | 264 | 245 | tde | 250
Cc1cc2nc3c(=O)[nH]c(=O)nc-3n(C[C@H](O)[C@H](O)[C@H](O)CO)c2cc1C [RIBOFLAVIN] | 129 | > 300 | > 300 | tde | > 300
NC(=O)N1C(=O)/C(=C(\O)c2ccc(F)s2)c2cc(F)c(Cl)cc21 | 833 | > 300 | 108 | tde | 175
